One compound from patent US20260262638A1, “AGRICULTURAL COMPOSITION” (priority 2022, published 2026) can be followed below.

Where “and” joins values, the source holds several entries; their conditions need not be identical. Equal values may be shown once.

For the data set, the system named is nematodes. The data set is described as follows: Nematicide laboratory bioassay in ELISA plates, nematode mortality 24 h after treatment. The data set is classed as in vivo. The protocol:
Bioassays were designed to determine the efficacy of tested formulations, and included the following steps: • 1. nematode extraction from carrot disks using the mesh extraction method; • 2. counting of extracted nematodes in a sample of 100 μL of water; • 3. preferably, nematode count in such a sample is between 40-80 nematodes; • 4. determining efficacy in ELISA plates; • 5. preparing a stock solution that is 10 times more diluted than the main formulation for all treatments; • 6. for treatments tested at 5% or 1.5%, aliquots of 50 μL or 15 μL of the corresponding stock solution were introduced to a well, respectively. Volume was completed with 50 μL of the nematode extract, except for treatments tested at 1.5%, an additional 35 μL of distilled water was introduced to reach a total volume of 100 μL. Content of the well was sufficiently mixed with a pipette, to ensure proper distribution of both nematodes and treatment components; • 7. performing at least 6 replicates of every treatment. The flask containing the nematode colony was mixed by manual shaking every time before nematodes were introduced to the well. This way we ensure a somewhat homogenous nematode count and avoid nematodes settling at the bottom of the flask; • 8. keeping the whole ELISA plate in dark conditions for 24 hours after introduction of the treatment; and • 9. assessing nematode mortality 24 hours after treatment under stereoscope. Nematodes that were moving were considered alive. Nematodes that were not moving were poked with a fine brush, if they respond to the poking with slight movements, they were considered alive. If not, they were considered dead.
The only validity criterium was that nematode mortality in the negative controls should not exceed 10%.
The raw mortality data was analyzed using RStudio (version 1.4.1717). The data sets were subjected to Shapiro-Wilk test for normality (α=0.05). Data was not normally distributed; therefore, a Kruskal-Wallis test was applied. Where there was significance, a Wilcoxon rank sum t-test was performed for pairwise comparisons between treatment groups.

Where [1] appears, read: mean over replicates, 24 h, tested dose per Table 2.
Setting [2] is: sum over replicates, 24 h, tested dose per Table 2.

Under setting [1], `CNC(=O)O/N=C(\SC)C(=O)N(C)C` [Oxamyl] came in with a mean alive of 20.50 and a mean dead of 22.17. For the same compound, the alive (nematodes counted alive per replicate well, 24 h after treatment, tested dose per Table 2) was 22 and 20 and 25 and 17 and 24 and 18 and 7 and 27 and 5 and 34 and 21 and 26. The Dead (nematodes counted dead per replicate well, 24 h after treatment, tested dose per Table 2 (5%, 1.5% or 1% w/v)) is 24 and 34 and 29 and 20 and 31 and 39 and 15 and 4 and 18 and 5 and 22 and 25. Under setting [2], this compound came in with a total alive of 246 and a total dead of 266. Besides, where the note is “tested dose per Table 2 (5%, 1.5% or 1% w/v)”, the “Mortality (%) 24 h post exposure” value was 50.76%.
